This data set in a line: gradient 5% acetonitrile 3 min, to 50% in 2 min, to 85% in 15 min, held 3 min, 100 µL/min. Particulars: column: Zorbax Extend-C18 2.1 x 50 mm; eluents: water / acetonitrile, 0.1% formic acid. The essentials:
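The system's dead and dwell volumes were 40 μL and 900 μL, with a Zorbax Extend-C18 column (2.1 × 50 mm, 1.8 μm) run at 100 μL/min in water and acetonitrile containing 0.1% formic acid each. Pure standards were analyzed in mixtures of ~100 molecules by HPLC–quadrupole time-of-flight mass spectrometry in positive and negative ionization mode. Retention time was assigned from computationally picked, manually inspected adduct peaks.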
For the compound `CCc1ccc(C2=C(C)C(N3CCCN(C(=O)NCCOC)CC3)=NS2(=O)=O)cc1`, the RP-LC retention time was determined as 731 s.

`CCn1cc(CCNC(=O)Nc2cc(C)ccc2C)c2cccnc21`: the RP-LC retention time worked out at 723 s.

In turn, `COc1cccc(C(=O)N2CCc3c(c(-c4nnc(-c5ccccc5Cl)o4)nn3C)C2)c1OC` gave an RP-LC retention time of 822 s.

`CC(C)OCCCNC(=O)c1nnc(-c2ccc(S(=O)(=O)N3CCOCC3)cc2)o1` registered an RP-LC retention time of 784 s.

In turn, `CSc1ccc(-c2nc3ccc(C)cn3c2Nc2ccc3c(c2)OCO3)cc1` gave an RP-LC retention time of 739 s.

For `O=C(NCCCN1CCN(c2ccccc2F)CC1)C1CCCN(c2nc3cccnc3s2)C1` (centres undefined), the RP-LC retention time was 652 s.

`CC1CCN(CCNS(=O)(=O)c2ccccc2-c2nc(-c3ccccc3)no2)CC1`: the RP-LC retention time was 735 s.

`Cc1ccc(Cl)cc1NC(=O)N1CCCC1c1nc(-c2ccccc2C)no1` (centres undefined) returned an RP-LC retention time of 1120 s.

`O=C1CCN(C(=O)COc2ccc(Cl)cc2)c2ccccc2N1`: the RP-LC retention time is 691 s.

In turn, `CCOc1ccccc1N1CCN(C(=O)C2CCN(c3ncnc4c3oc3ccccc34)CC2)CC1` registered an RP-LC retention time of 814 s.

In the case of `CCC(C)NC(=O)N1CCN(c2cc(-c3cc(F)ccc3OC)ncn2)CC1` (centres undefined), the RP-LC retention time is 636 s.

Turning to `Cc1ccc(NS(=O)(=O)c2cc(-c3[nH]ncc3C(=O)N(C)C)oc2C)cc1F`, the RP-LC retention time worked out at 713 s.

In turn, `CCc1noc2nc(C)n(CC(=O)NCc3ccccc3)c(=O)c12` returned an RP-LC retention time of 753 s.

In turn, `COc1ccc(-n2ccnc2SCC(=O)NCc2ccc3c(c2)OCO3)c(OC)c1` registered an RP-LC retention time of 630 s.

The compound `CCCCC(=O)NC1=C(C(=O)OC)SCC1` came in with an RP-LC retention time of 905 s.

On to `CCSc1nnc(-c2nn(C)c3c2CN(S(=O)(=O)c2ccc(CC)cc2)CC3)n1CC`, for which the RP-LC retention time was 1030 s.

The compound `CCOC(=O)CCCn1c(=O)c2cccn2c2ccc(F)cc21` registered an RP-LC retention time of 847 s.

Consider `CCc1ccccc1NC(=O)Cn1nc(N2CCCC(C)C2)c2ccccc2c1=O` (centres undefined), for which the RP-LC retention time worked out at 1180 s.

Consider `Cc1nn(C)c(C)c1CCCN(C)C(=O)CCc1ccnc(N2CCOCC2)c1`, for which the RP-LC retention time stood at 521 s.

Compound `O=C(NC1CCCc2c1[nH]c1ccc(Cl)cc21)c1ccncc1` (centres undefined) had an RP-LC retention time of 859 s.

`CN(Cc1ccccc1)C(=O)C1CCCN(c2nnc(N3CCCC3=O)s2)C1` (centres undefined) displayed an RP-LC retention time of 718 s.

`CCn1cc(S(=O)(=O)N2C[C@H]3CN(S(=O)(=O)c4cccc(F)c4)C[C@@H](C2)O3)cn1` displayed an RP-LC retention time of 815 s.

As to `Cc1ccc(NC(=O)N2CCCCC2)cc1[N+](=O)[O-]`, the RP-LC retention time turned out to be 916 s.

`O=C(NCc1csc(C2CCCN(C(=O)c3cc(F)cc(F)c3)C2)n1)C1CCC1` (centres undefined) registered an RP-LC retention time of 771 s.

In the case of `CCC(C(=O)NCCc1c[nH]c2ccccc12)n1c2ccccc2c2cnn(C)c(=O)c21` (centres undefined), the RP-LC retention time amounted to 916 s.

`CC(C)CC(=O)N1CCN(c2ccc(=O)n(-c3cccc(Cl)c3)n2)CC1` displayed an RP-LC retention time of 829 s.

For the compound `CN(C)S(=O)(=O)c1ccc(-c2nnc(C(=O)NCc3ccc4c(c3)OCO4)o2)cc1`, the RP-LC retention time was 814 s.

In the case of `Cn1cc(CN2CCC(C(=O)NCc3ccccc3F)CC2)c2cc(Cl)ccc21`, the RP-LC retention time was found to be 705 s.

`CCN1C(=O)c2cccnc2Sc2cc(CNC(=O)c3cccn3C)ccc21` displayed an RP-LC retention time of 747 s.

`c1ccc(-n2nnnc2N2CCN(c3ccccn3)CC2)cc1` registered an RP-LC retention time of 571 s.

`CC1(C(=O)NC2CCCC2)Cn2cnc(C(=O)NCCCc3ccccc3)c2C(=O)N1C1CC1` (centres undefined) displayed an RP-LC retention time of 823 s.

In turn, `CC1(C)CC(=O)c2cn(-c3ccccc3)c(=O)c(C(=O)N3CCC(N4CCCCC4)CC3)c2C1` showed an RP-LC retention time of 622 s.

`O=C(Cc1cccs1)N1CCc2c([nH]c3ccccc23)C1c1ccccc1` (centres undefined) registered an RP-LC retention time of 1130 s.

Take `CCN(C(=O)c1ccccc1)c1nc(-c2ccccc2)cs1`: the RP-LC retention time came out at 1230 s.

Compound `O=C(Nc1cnc(N2CCOCC2)nc1)c1ccc(F)cc1Cl` came in with an RP-LC retention time of 743 s.

Compound `Cc1cc(F)ccc1NC(=O)C1CC(=O)N(c2ccc3c(c2)CCN3C(=O)C2CC2)C1` (centres undefined) showed an RP-LC retention time of 758 s.

`CCOc1ccc(NC(=O)Cn2cnc3nc(N4CCCC(C(=O)NC5CC5)C4)sc3c2=O)cc1` (centres undefined) registered an RP-LC retention time of 675 s.

Turning to `COc1ccc(C(=O)NC2(c3nc(C)no3)CCCCC2)c(C)c1`, the RP-LC retention time was 855 s.

Regarding `O=C(C1=CN(c2cc(F)cc(F)c2)c2cc(F)ccc2S1(=O)=O)N1CCCC1`, the RP-LC retention time is 829 s.

For `Cc1ccc2c(c1)cc(S(=O)(=O)c1ccccc1)c(=O)n2CC(=O)NC1CCCC1`, the RP-LC retention time is 903 s.

`COc1ccc(C(=O)OCCN2CCN(C3=NS(=O)(=O)c4ccccc43)CC2)cc1OC` showed an RP-LC retention time of 618 s.

Consider `COc1ccccc1NC(=O)N1CCCC1c1nc(-c2cccc(C)c2)no1` (centres undefined), for which the RP-LC retention time is 1080 s.

Compound `CCn1ccc(C(=O)N2CC(N(C3CCOCC3)S(C)(=O)=O)C2)n1` yielded an RP-LC retention time of 625 s.

Turning to `Cc1ccc(CNc2ccc(-c3nc(-c4ccc(F)cc4)no3)cn2)o1`, the RP-LC retention time worked out at 1190 s.

`COCC1CN(C(=O)c2sccc2C)CC12CCNCC2` (centres undefined) gave an RP-LC retention time of 575 s.

`CCC1CN2C=NC(N3CCN(C(=O)Nc4ccccc4Cl)CC3)=CC2=N1` (centres undefined) showed an RP-LC retention time of 814 s.

For the compound `COC(=O)c1ccc2c(=O)n(-c3ccccc3)c(N3CCSCC3)nc2c1`, the RP-LC retention time turned out to be 1030 s.

Compound `Cc1ccc(-c2noc(CNC(=O)C3CCC(=O)N3S(=O)(=O)c3ccc(C)cc3)n2)cc1` (centres undefined) displayed an RP-LC retention time of 929 s.

Take `Cc1cc(-c2nnc(C3CC3)o2)c(C)n1CC(=O)NCc1ccc(F)cc1`: the RP-LC retention time worked out at 784 s.

For the compound `CCn1cc(C(=O)NCc2ccc3c(c2)OCO3)c2cccnc21`, the RP-LC retention time stood at 755 s.

As to `CCc1nc2c(NC(=O)NCc3ccc(F)cc3)cccn2n1`, the RP-LC retention time is 788 s.

`COc1ccc(CNC(=O)NCC2(c3ccc(F)cc3)CC2)cc1`: the RP-LC retention time amounted to 817 s.

`Cc1c(NS(=O)(=O)CCOc2ccccc2)c(=O)n(-c2ccccc2)n1C` registered an RP-LC retention time of 729 s.

On to `O=C(Nc1ccccc1F)N1CC(F)(F)C[C@H]1CN1CCCC1`, for which the RP-LC retention time came out at 620 s.

Consider `CCc1nncn1C1CCN(C(=O)c2cc(-c3cccs3)[nH]n2)C1` (centres undefined), for which the RP-LC retention time is 595 s.

As for `COc1ccccc1N1CCN(c2cc(SCC(=O)NCc3ccc(SC)cc3)ncn2)CC1`, the RP-LC retention time is 929 s.

Compound `CN(C)C(=O)c1csc(S(=O)(=O)N2CCC(C(=O)Nc3ccccc3F)CC2)c1` showed an RP-LC retention time of 770 s.

`CCCN1CCCCc2cc(C(=O)NC(C)(C)C)sc21`: the RP-LC retention time turned out to be 1200 s.

Regarding `O=C(Cn1cnc(-c2noc(-c3ccc(F)cc3)n2)c1)NCc1ccc(F)cc1`, the RP-LC retention time worked out at 857 s.

These data come from the METLIN SMRT retention time set (Domingo-Almenara et al. 2019).
